According to ChEMBL document CHEMBL3286379, “Design and synthesis of pyrimidine molecules endowed with thiazolidin-4-one as new anticancer agents” (Eur J Med Chem, 2014):

Columns and labels:
Type in all cases: functional
MDA-MB-468 = experiment: Growth inhibition of human MDA-MB-468 cells after 48 hrs by sulforhodamine B assay; details: MDA-MB-468, 48 h
M14 = experiment: Growth inhibition of human M14 cells after 48 hrs by sulforhodamine B assay; details: M14, 48 h
[1] = Growth inhibition of human NCI-ADR-RES cells after 48 hrs by sulforhodamine B assay
[2] = Growth inhibition of human RXF393 cells after 48 hrs by sulforhodamine B assay; details: RXF 393, 48 h
A549 = experiment: Growth inhibition of human A549/ATCC cells after 48 hrs by sulforhodamine B assay; details: A549, 48 h
[3] = Growth inhibition of human UACC62 cells after 48 hrs by sulforhodamine B assay; details: UACC-62, 48 h
[4] = Growth inhibition of human OVCAR4 cells after 48 hrs by sulforhodamine B assay; details: OVCAR-4, 48 h
T47D = experiment: Growth inhibition of human T47D cells after 48 hrs by sulforhodamine B assay
SK-MEL-2 = experiment: Growth inhibition of human SK-MEL-2 cells after 48 hrs by sulforhodamine B assay; details: SK-MEL-2, 48 h
PC-3 = experiment: Growth inhibition of human PC3 cells after 48 hrs by sulforhodamine B assay; details: PC-3, 48 h
MDA-MB-435 = experiment: Growth inhibition of human MDA-MB-435 cells after 48 hrs by sulforhodamine B assay; details: MDA-MB-435, 48 h
[5] = Growth inhibition of human OVCAR3 cells after 48 hrs by sulforhodamine B assay; details: OVCAR-3, 48 h
[6] = read-out: LC50 (the source's name)
[7] = read-out: pLC50 (the source's name) (converted)

Question: For `Nc1nc(-c2ccccc2Cl)cc(-c2ccc(Cl)cc2Cl)n1`, which GI50 (MDA-MB-468; read-out: GI50) is on record?
Answer: 2.18 µM

Question: And the CC50 (MDA-MB-468; [6])?
Answer: > 100 µM

Question: And the TGI (MDA-MB-468; read-out: TGI)?
Answer: 8.66 µM

Question: What about the GI50 (MDA-MB-468; read-out: pGI50 (converted)) of the same compound?
Answer: 2.19 µM

Question: What about the CC50 (MDA-MB-468; [7]) of the same compound?
Answer: > 100 µM

Question: What about the TGI (MDA-MB-468; read-out: pTGI (converted)) of the same compound?
Answer: 8.71 µM

Question: And the GI50 (M14; read-out: GI50)?
Answer: 5.95 µM

Question: What about the CC50 (M14; [6]) of the same compound?
Answer: > 100 µM

Question: What about the TGI (M14; read-out: TGI) of the same compound?
Answer: > 100 µM

Question: And the GI50 (M14; read-out: pGI50 (converted))?
Answer: 5.89 µM

Question: What about the CC50 (M14; [7]) of the same compound?
Answer: > 100 µM

Question: What about the TGI (M14; read-out: pTGI) of the same compound?
Answer: > 100 µM

Question: What about the GI50 ([1]; read-out: GI50) of the same compound?
Answer: 14.8 µM

Question: What about the CC50 [1, 6] of the same compound?
Answer: > 100 µM

Question: What about the TGI ([1]; read-out: TGI) of the same compound?
Answer: > 100 µM

Question: And the GI50 ([1]; read-out: pGI50 (converted))?
Answer: 14.8 µM

Question: And the CC50 [1, 7]?
Answer: > 100 µM

Question: What about the TGI ([1]; read-out: pTGI) of the same compound?
Answer: > 100 µM

Question: What about the GI50 ([2]; read-out: GI50) of the same compound?
Answer: 2.67 µM

Question: What about the CC50 [2, 6] of the same compound?
Answer: > 100 µM

Question: What about the TGI ([2]; read-out: TGI) of the same compound?
Answer: 10.7 µM

Question: And the GI50 ([2]; read-out: pGI50 (converted))?
Answer: 2.69 µM

Question: And the CC50 [2, 7]?
Answer: > 100 µM

Question: And the TGI ([2]; read-out: pTGI (converted))?
Answer: 10.7 µM

Question: What about the GI50 (A549; read-out: GI50) of the same compound?
Answer: 4.81 µM

Question: What about the CC50 (A549; [6]) of the same compound?
Answer: > 100 µM

Question: And the TGI (A549; read-out: TGI)?
Answer: > 100 µM

Question: What about the GI50 (A549; read-out: pGI50 (converted)) of the same compound?
Answer: 4.79 µM

Question: What about the CC50 (A549; [7]) of the same compound?
Answer: > 100 µM

Question: And the TGI (A549; read-out: pTGI)?
Answer: > 100 µM

Question: What about the GI50 ([3]; read-out: GI50) of the same compound?
Answer: 5.93 µM

Question: What about the CC50 [3, 6] of the same compound?
Answer: > 100 µM

Question: What about the TGI ([3]; read-out: TGI) of the same compound?
Answer: 44.2 µM

Question: What about the GI50 ([3]; read-out: pGI50 (converted)) of the same compound?
Answer: 5.89 µM

Question: What about the CC50 [3, 7] of the same compound?
Answer: > 100 µM

Question: What about the TGI ([3]; read-out: pTGI (converted)) of the same compound?
Answer: 44.7 µM

Question: And the GI50 [4]?
Answer: 12 µM

Question: And the CC50 [4, 6]?
Answer: > 100 µM

Question: And the CC50 [4, 7]?
Answer: > 100 µM

Question: What about the TGI ([4]; read-out: pTGI (converted)) of the same compound?
Answer: 89.1 µM

Question: What about the GI50 (T47D; read-out: GI50) of the same compound?
Answer: 6.58 µM

Question: And the CC50 (T47D; [6])?
Answer: > 100 µM

Question: What about the TGI (T47D; read-out: TGI) of the same compound?
Answer: > 100 µM

Question: What about the GI50 (T47D; read-out: pGI50 (converted)) of the same compound?
Answer: 6.61 µM

Question: What about the CC50 (T47D; [7]) of the same compound?
Answer: > 100 µM

Question: What about the TGI (T47D; read-out: pTGI) of the same compound?
Answer: > 100 µM

Question: What about the GI50 (SK-MEL-2; read-out: GI50) of the same compound?
Answer: 6.1 µM

Question: And the CC50 (SK-MEL-2; [6])?
Answer: > 100 µM

Question: And the TGI (SK-MEL-2; read-out: TGI)?
Answer: 44.7 µM

Question: And the GI50 (SK-MEL-2; read-out: pGI50 (converted))?
Answer: 6.17 µM

Question: And the CC50 (SK-MEL-2; [7])?
Answer: > 100 µM

Question: What about the TGI (SK-MEL-2; read-out: pTGI (converted)) of the same compound?
Answer: 44.7 µM

Question: What about the GI50 (PC-3; read-out: GI50) of the same compound?
Answer: 5.43 µM

Question: And the CC50 (PC-3; [6])?
Answer: > 100 µM

Question: What about the TGI (PC-3; read-out: TGI) of the same compound?
Answer: > 100 µM

Question: And the GI50 (PC-3; read-out: pGI50 (converted))?
Answer: 5.37 µM

Question: What about the CC50 (PC-3; [7]) of the same compound?
Answer: > 100 µM

Question: And the TGI (PC-3; read-out: pTGI)?
Answer: > 100 µM

Question: And the GI50 (MDA-MB-435; read-out: GI50)?
Answer: 1.97 µM

Question: And the CC50 (MDA-MB-435; [6])?
Answer: > 100 µM

Question: And the TGI (MDA-MB-435; read-out: TGI)?
Answer: 4.93 µM

Question: What about the GI50 (MDA-MB-435; read-out: pGI50 (converted)) of the same compound?
Answer: 1.95 µM

Question: What about the CC50 (MDA-MB-435; [7]) of the same compound?
Answer: > 100 µM

Question: And the TGI (MDA-MB-435; read-out: pTGI (converted))?
Answer: 4.9 µM

Question: What about the GI50 ([5]; read-out: GI50) of the same compound?
Answer: 4.05 µM

Question: What about the CC50 [5, 6] of the same compound?
Answer: > 100 µM

Question: And the TGI ([5]; read-out: TGI)?
Answer: 20.7 µM

Question: What about the GI50 ([5]; read-out: pGI50 (converted)) of the same compound?
Answer: 4.07 µM

Question: What about the CC50 [5, 7] of the same compound?
Answer: > 100 µM

Question: What about the TGI ([5]; read-out: pTGI (converted)) of the same compound?
Answer: 20.9 µM
